Entries after “also recorded” stand apart in the source; their conditions may differ.
Key:
[1] = system: Ehrlich ascites carcinoma (EAC) cells; assay: In vitro cytotoxic activity, trypan blue dye exclusion; format: cell-based, mice; settings: 3 h incubation at 37 °C
Method: The synthesized indoloquinoline analogs 6a–d were evaluated for their cytotoxic activity against Ehrlich ascites carcinoma (EAC), as depicted in Table 1. The EAC cells used in this study were supplied by National Cancer Institute, Cairo, Egypt. The cells were maintained in vivo in Swiss Albino female mice by intraperitoneal transplantation (0.2 mL of 2 × 10^6 cells/mL). EAC cells were aspirated from the peritoneal cavity of mice, washed with saline and given intraperitoneally to develop ascites tumor. Trypan blue dye exclusion technique was used to figure the viability percentage of EAC cells to assay the cytotoxic activity of the studied compounds. In brief, under completely sterile conditions, EAC cells were separated away from the mice abdomens. Hank’s balanced salt solution (HBSS) was used to wash the separated cells. Cells were put in a cooling centrifuge at 1500 rpm for 15 min; the produced granules were put back into suspension using HBSS, the mentioned steps were done in triplicate. Finally, a measured volume of RPMI 1640 was used to suspend the cells, followed by the addition of 10% fetal bovine serum, 10 µg/mL streptomycin and 100 U/mL penicillin. Consequently, the cell count was adjusted to 2 × 10^6 cells/mL from the prepared diluted cell suspension 0.2 mL was titrated in 96 flat-bottomed tissue culture plates. Serial concentrations of each tested compound were prepared and added in triplicate and incubated at 37 °C for 3 h in a 5% CO2 atmosphere. The IC50 parameter (half-maximum inhibitory concentration) was calculated using Trypan blue dye exclusion test, and then the cytotoxic effect was evaluated using control EAC cells. Thalidomide was used as a reference drug alongside the parent natural compound neocryptolepine I for comparison. Thalidomide was used as a reference drug because its mechanism of action is expected to be similar to the mechanism of action of neocryptolepine analogs as its anticancer action may be based on its antiangiogenic action, resulting from specific DNA intercalation as well as induce cell cycle arrest.
The percentage of EAC cell death of the synthesized derivatives was evaluated by trypan blue exclusion assay. In addition, the compounds 6a–d, as well as the reference drug thalidomide and the parent natural compound neocryptolepine (I), were evaluated through eight concentration levels. It is worth noting that this cytotoxicity was dose-dependent when compared to the reference drug, thalidomide and the control, which was treated with the corresponding dilutions of DMSO.
As a preparation step to perform cytotoxicity assay against the EAC cell line, thalidomide, parent neocryptolepine and the indoloquinoline compounds a 6a, 6b, 6c and 6d were dissolved in DMSO/saline (0.3:0.7) to prepare a solution of 10 mmol concentration. The stock solutions were stored at 4 °C and were used all over the assay. EAC cells were supplied by the National Cancer Institute, Cairo, Egypt. The cells were maintained in vivo in Swiss albino female mice by intraperitoneal transplantation (0.2 mL of 2 × 10^6 cells/mL). EAC cells were aspirated from the peritoneal cavity of mice, washed with saline, and given intraperitoneally to develop ascites tumor.
Trypan blue dye exclusion technique was used to figure the viability percentage of EAC cells to assay the cytotoxic activity of the studied compounds. In brief, under completely sterile conditions, EAC cells were separated away from the mice’s abdomen. Hank’s balanced salt solution (HBSS) was used to wash the separated cells. The cells were put in a cooling centrifuge at 1500 rpm for 15 min; the produced granules were put back into suspension using HBSS, the mentioned steps were done in triplicate. Finally, a measured volume of RPMI 1640 was used to suspend the cells, followed by the addition of 10% fetal bovine serum, 10 µg/mL streptomycin and 100 U/mL penicillin and the cell count was adjusted to 2 × 10^6 cells/mL. […]

EAC solid tumor = assay: Histopathological examination of tumor sections (H and E); format: in vivo, mice; settings: for tumor section histopathology (necrosis): EAC bearing mouse, H and E × 200, Figure 3; for tumor cell death (histopathology): EAC solid tumor, compared with other molecules
Method: Results of the treated group and that of the positive control group are illustrated in (Figure 3 and Figure 4). […] At the same time, the count of mitotic cells was less in the studied analogs 6a, 6b, 6c and 6d as measured up to that of the positive control group.
(§1) Each tumor or liver sample for each mouse was separated and kept in 10% formalin solution and dehydrated in a graded alcohol series. Each specimen was treated with xylene and then inserted in paraffin blocks. The specimen was cut into sections, the thickness of each section is five-micron, hematoxylin, and eosin (H and E) were added for staining. The stained liver specimen was used to assess the degree of degradation and necrosis using a reported scaling system; the scaling system use numbers from 0 to 3 to reflect necrosis severity. Starting from 0, which indicates no necrosis and moves to mild, moderate, and severe necrosis indicated by 1, 2, and 3, respectively. Mild and moderate stages are defined as focal and multifocal necrosis or degradation of hepatocytes, respectively, while severe is characterized by local immense, spread out necrosis or damaged liver cells. Tumor specimen stained with H and E were used to evaluate the severity and percentage of necrosis by the same previously mentioned scaling system.
H and E-stained slides of tumor specimens were used also used to calculate the H score as well as the mitosis counting and apoptotic tumor cell counting, ten arbitrarily chosen microscopic fields were used for each mitosis and apoptotic tumor cell counting, this was considered as examining at least 1000 tumor cells. High magnification (400×) was used for microscopic examination.

[2] = system: solid-tumor (EAC) bearing mice (liver homogenate); assay: Lipid peroxidation and antioxidant enzymes in liver homogenate of solid-tumor bearing mice; format: in vivo, Swiss female albino mice; settings: 100 mg/kg for 5 days; for CAT / Lipid Peroxidation / SOD: liver
Method: Measuring antioxidant enzyme levels and lipid peroxidation was utilized to evaluate the pharmacological effect of indoloquinoline derivatives. The study group was divided into two subgroups, normal mice and tumor-bearing mice. Each subgroup is further subdivided into two groups, one group received indoloquinoline derivatives, and the other group was marked as a placebo group.
After administration of indoloquinoline analogs 6a, 6b, 6c and 6d at a dose of 100 mg/kg for 5 constitutive days to mice with EAC, the levels of lipid peroxidation were highly significant less than that of the positive control group (p < 0.001). Meanwhile, the level of SOD in the liver homogenate of positive bearing mice was 32.1% (p < 0.001) less than that of the normal group (Table 5).
The eradicated liver was double washed first, with ice-cold normal saline then, with cold 0.15 mol/L Tris-HCl buffer (pH 7.4). The clean organ was dried and weighed, and used to prepare a 10% w/v homogenate in 0.15 mol/L Tris-HCl buffer. A portion of the prepared homogenate was centrifuged at 1500 rpm for 15 min at 4 °C [47] and used for estimating lipid peroxidation, SOD [48] and CAT [49] analysis was carried out using the supernatant.

liver = assay: Histopathological examination of liver sections (H and E); format: in vivo; settings: for liver degenerative changes (histopathology): mice treated with compound, Figure 5
Source text: It is well known that the vital organ enables the human body to get rid of toxins, as organic xenobiotics in the liver. Tissue changes in the liver are linked with histological abnormalities. Possible unwanted effects of the Indoloquinolines were checked in the mice group that received the compound; 5 days after subcutaneous injection of the compounds, tumors and livers were fixed in 10% neutral buffered formalin solution and embedded in paraffin. Sections, […], were stained using hematoxylin and eosin (H and E).
as §1

[3] = 5 days after subcutaneous injection, H and E

## 5-Methyl-N-(4-methylpiperazin-1-yl)-5H-indolo[2,3-b] Quinolin-11-amine [Compound 6d]
[1]
  IC50: 0.15 nM
EAC solid tumor
  tumor section histopathology (necrosis): massive geographic coagulative necrosis (Ne) surrounded by viable tumor cells
[2]
  increase of CAT level against positive control: 65.8%
  increase of SOD level in relation to positive control group: 39.8%
  CAT: 6.8 ± 0.12 KU/mg Tissue/s
  Lipid Peroxidation: 249.9 ± 2.2 nmol MDA/g Tissue
  SOD: 132.86 ± 0.55 U/g Tissue
liver; mouse, in vivo, sc
  necrosis of liver cells: did not cause necrosis to liver cells

## Cn1c2nc3ccccc3c-2c(NCCc2c[nH]c3ccccc23)c2ccccc21 [Compound 6b, N-(2-(1H-Indol-3-yl)ethyl)-5-methyl-5H-indolo[2,3-b] Quinolin-11-amine]
[1]; Mus musculus, Ehrlich
  IC50: 0.064 nM
EAC solid tumor
  tumor section histopathology (necrosis): extensive necrosis (Ne) with minimal viable malignant cells
  tumor cell death (histopathology): supremely cell death percentage and apoptosis; also recorded: highest effect in tumor cell death without harming liver cells
[2]
  increase of CAT level against positive control: 78.04%
  increase of SOD level in relation to positive control group: 53.69%
  CAT: 7.3 ± 0.16 KU/mg Tissue/s
  Lipid Peroxidation: 268.9 ± 2.8 nmol MDA/g Tissue
  SOD: 146.06 ± 3.11 U/g Tissue
liver; [3]
  necrosis of liver cells: did not cause necrosis to liver cells
liver; H and E
  liver degenerative changes (histopathology): mild diffuse degenerative changes, mild congestion, and scattered lymphocytes

## 5(5-Methyl-5H-indolo[2,3-b] quinolin-11-ylamino) Pyrimidine-2,4(1H,3H)-dione [Compound 6c]
[1]
  IC50: 0.33 nM
EAC solid tumor
  tumor section histopathology (necrosis): massive area of coagulative necrosis (Ne) with viable tumor cells
[2]
  increase of CAT level against positive control: 107.3%
  increase of SOD level in relation to positive control group: 36.24%
  CAT: 8.5 ± 0.34 KU/mg Tissue/s
  Lipid Peroxidation: 262.1 ± 1.9 nmol MDA/g Tissue
  SOD: 129.47 ± 1.38 U/g Tissue
liver; mouse, in vivo, sc
  necrosis of liver cells: did not cause necrosis to liver cells

## Cn1c2nc3ccccc3c-2c(Nc2ccc(Br)cc2F)c2ccccc21 [Compound 6a, N-(4-Bromo-2-fluorophenyl)-5-methyl-5H-indolo[2,3-b] Quinolin-11-amine]
[1]; Mus musculus, Ehrlich
  IC50: 0.17 nM
EAC solid tumor; EAC bearing mice, H and E
  antimitotic effect (count of mitotic cells): greatest antimitotic effect
EAC solid tumor
  tumor section histopathology (necrosis): massive, coagulated necrosis (Ne) with minimal residual malignant cells
  tumor cell death (histopathology): supremely cell death percentage and apoptosis
[2]
  increase of CAT level against positive control: 51.2%
  increase of SOD level in relation to positive control group: 54.4%
  CAT: 6.2 ± 0.14 KU/mg Tissue/s
  Lipid Peroxidation: 249.3 ± 2.1 nmol MDA/g Tissue
  SOD: 146.75 ± 2.11 U/g Tissue
liver; [3]
  necrosis of liver cells: did not cause necrosis to liver cells
liver; H and E
  liver degenerative changes (histopathology): mild degenerative changes

Source: publication PMC7867085, “In Vitro and In Vivo Antitumor Activity of Indolo[2,3-b] Quinolines, Natural Product Analogs from Neocryptolepine Alkaloid” (Molecules, 2021)
